Measured values reported in patent US7273723B2, “Antibiotic-based gene regulation system” (priority 2001, dated 2007).

Legend:
[1] = system: ET1 (MphR(A)-VP16) / PETR promoters; test: SEAP reporter assay, CHO lines stably expressing ET1 (CHO-ET11, CHO-ET12) transiently transfected with PETR-SEAP plasmids; assay type: cell-based; details: for SEAP Production (%) +EM: 2 μg/ml EM, −EM = 100; for SEAP activity [U/L] + EM: erythromycin 2 μg/ml
Description: (§1) Chinese hamster ovary cells (CHO-K1, ATCC: CCL 61), and HeLa cells (ATCC: CRL-7923) as well as stable cell lines derived thereof were cultured as described before (Fussenegger et al., 1998, Nat. Biotechnol. 16,468-472) in the presence of appropriate antibiotics: G418 400 μg/ml; zeocin 100 μg/ml. Optimized CaPO4 protocols were used for high efficiency transient transfection of all cell lines (Fussenegger et al., 1998. Nat. Biotechnol. 16: 468-472). Transiently transfected cells were routinely analyzed after 48 h for CFP or SEAP expression using fluorescence microscopy and p-nitrophenolphosphate-based light absorbance timecourse, respectively, as described before (Fussenegger et al., 1998, Nat. Biotechnol. 16, 468-472; Berger et al., 1988, Gene 66, 1-10 b). For construction of stable CHO-ET1 and CHO-Triplet42 cell lines, CHO-Ki and CHO-TWIN1108 (Disclosed in PCT application no. 00/65080) were cotransfected with pWW35 and pZeoSV2 (invitrogen). CHO-ET11-SEAP was constructed by cotransfection of pWW38 and pSV2neo (Clontech) into CHO-ET11. The mixed populations were cloned using FACS-mediated single-cell-sorting (FACStar^Plus; Beckton Dickinson). For assessment of dose-response characteristics of PETR3-regulated gene expression, CHO-ET11-SEAP were cultured at cell densities of 50,000/ml for 48 h at various EM concentrations.
(§2) Other antibiotics were eluted from antibiotic test discs (Mast Diagnostica GmbH, Reinfeld, Germany, or bioMérieux, Geneva Switzerland) in cell culture medium at 37° C. for 12 h to reach a final concentration of 30 μg/ml. All macrolide antibiotics were used at a 2 μg/ml concentration unless indicated otherwise.
Two representative clones, CHO-ET11 and CHO-ET12, were chosen at random among ET1-expressing CHO cell clones stably transfected with a constitutive ET1 expression construct (pWW35).
Access to alternative effective antibiotics would expand the spectrum of regulating agents available for future use in human cell and gene therapy. Accordingly, several commercially available antibiotic sources were tested for their potential to regulate the ET1/PETR3 system as shown below in Table 3.
The effect of the different spacer length in promoters PETR2 and PETR7-PETR11 were examined by transfecting the corresponding plasmids (pWW37, pBP10-pBP14) into a CHO cell line stably transfected with the transactivator ET1 (MphR(A)-VP 16, see example 1).

[2] = system: CHO cells; test: CHO cell morphology and growth in the presence of EM; assay type: cell-based, Chinese hamster; details: EM 2 μg/ml
[3] = system: ET1/PETR3 positive feedback expression unit; test: Autoregulated pWW46 (PETR3-CFP-IRES-ET1-pA) CFP expression by fluorescence microscopy; assay type: cell-based; details: pWW46 in CHO-K1, HeLa, COS-7 or HEK 293-T cells; erythromycin 2 μg/ml
Source text: These positive feedback regulation vectors that were constructed contain both the cyan fluorescent protein CFP and ET1 in a dicistronic, PETR3-driven configuration.

[4] = system: PIT / pristinamycin-responsive promoter PPIR; test: SEAP assay in CHO-Triplet42 transfected with PPIR-SEAP (pMF172); assay type: cell-based; details: CHO-Triplet42 + pMF172 (PPIR); antibiotic 2 μg/ml; 48 h
Description: as §1, §2
(§3) The regulation performance of the EM-based regulation system was compared directly with the widely used TET- and PIP responsive expression concepts. To this end, we have constructed a stable CHO-K1-derived cell line expressing ET1, PIT and tTA (CHO-Triplet42). […] CHO-Triplet42 was transfected with either isogenic (i) PETR3-(pWW38), (ii) a PPIR-(pristinamycin-responsive promoter, pMF172, Fussenegger et al., 2000. supra.), or (iii) a PhCMV*-1-(tetracycline-responsive promoter, pMF111, Fussenegger et al., 2000. supra) driven SEAP expression vector to assess the individual regulation performance of the three antibiotic-responsive gene regulation systems in CHO cells (Table 5).
(§4) To analyze the relative regulatory characteristics, we evaluated induction factors (IF; ratio of maximal expression level to antibiotic-repressed expression level).
(§5) These repressive effects are still in a range which is tolerable for use in potential medical applications.

[5] = system: ET1 / erythromycin-responsive promoter PETR3; test: SEAP assay in CHO-Triplet42 transfected with PETR3-SEAP (pWW38); assay type: cell-based; details: CHO-Triplet42 + PWW38 (PETR3); antibiotic 2 μg/ml; 48 h
Description: as §1, §2, §3, §4, §5

[6] = system: ET1/PETR3; test: Dose-response of EM-dependent SEAP expression in stable CHO-ET11-SEAP; assay type: cell-based, Chinese hamster ovary cells; details: 48 h
Description: The cell line CHO-ET1-SEAP1 was grown for 48 h at different EM concentrations (ng/ml). The relative SEAP production is shown over 5 orders of magnitude of EM concentration.
as §1
Varying the concentrations of EM used for induction could control the levels of PETR3-regulated gene expression. This was assessed using a stable CHO cell line (CHO-ET11-SEAP) which expresses PETR3-SEAP (pWW38) and stably contains also a constitutive ET1 expression vector (pWW35). […] Increasing EM concentration above 10 ng/ml leads to a gradual decrease in SEAP expression, with lowest SEAP expression levels at EM concentrations over 1000 ng/ml. […]

CC[C@H]1OC(=O)[C@H](C)[C@@H](O[C@H]2C[C@@](C)(OC)[C@@H](O)[C@H](C)O2)[C@H](C)[C@@H](O[C@@H]2O[C@H](C)C[C@H](N(C)C)[C@H]2O)[C@](C)(O)C[C@@H](C)C(=O)[C@H](C)[C@@H](O)[C@]1(C)O [Erythromycin]
SEAP Production (%) +EM ([1]; CHO-ET11 + PETR3-SEAP (pWW38)): 1.75 ± 0.1%
SEAP production [%] ([1]; CHO-ET11 transiently transfected with pWW38, 48 h, antibiotic 2 μg/ml, no macrolide = 100): 1.7 ± 0.1%
SEAP Production (%) +EM ([1]; CHO-ET12 + PETR3-SEAP (pWW38)): 4.67 ± 0.8%
Reversibility of EM-responsive SEAP regulation ([1]; both CHO-ET1 derivatives, repeated cycles of addition and withdrawal): fully reversible
SEAP activity [U/L] + EM ([1]; pBP10 (PETR7, 2 bp) in CHO stably transfected with ET1, 48 h): 4.2 ± 1.0 U/L
SEAP activity [U/L] + EM ([1]; pBP12 (PETR9, 6 bp) in CHO stably transfected with ET1, 48 h): 8.4 ± 1.6 U/L
SEAP activity [U/L] + EM ([1]; pBP13 (PETR10, 8 bp) in CHO stably transfected with ET1, 48 h): 19.7 ± 1.4 U/L
SEAP activity [U/L] + EM ([1]; pWW37 (PETR2, 0 bp) in CHO stably transfected with ET1, 48 h): 8.3 ± 0.2 U/L
Effects on CHO cell morphology and growth [2]: No deleterious effects
CFP-expression (fluorescence microscopy) [3]: completely repressed
SEAP activity [U/L] [4]: 10.1 ± 1.5 U/L
SEAP activity [U/L] [5]: 3.8 ± 0.4 U/L
EM concentration at which ET1/PETR3 is fully induced [6]: < 10 ng/mL
EM concentration at which ET1/PETR3 is repressed (lowest SEAP expression) [6]: > 1000 ng/mL
EM concentration window in which gene expression can be adjusted to different levels [6]: 10 to 1000 ng/mL
